Where two headings read alike, the source gives them in different places.
Tests used:
[1] = test system: human colon cancer cell line HCT-116; experiment: Antiproliferative activity against colon cancer cells (CellTiter-Glo); type: cell-based; conditions: 100 μg/mL, 48 hrs
Experimental: (§1) EA and EA-metabolites (gallic and gallagic acids, urolithin B and methylated-urolithin A) were evaluated for antiproliferative activity against the human colon cancer cell line HCT-116. The cells were grown to a concentration of 10,000 cells per well in a 96 well format; and were then resuspended in medium containing vehicle control or the indicated compound: Ellagic acid, urolithin A, methyl urolithin A, or urolithin B, at a concentration of 100 μg/mL. The cells were incubated for 48 hrs, and the viability assayed by the CellTiter-Glo® Luminescent Cell Viability Assay (Technical Bulletin #288, Promega Corp., Madison, Wis.).

[2] = Tissue disposition study after UA administration; type: in vivo, C57/B6 mice; conditions: for UA and UA-conjugate levels in plasma at 24 h / UA and UA-conjugate levels in tissues at 24 h: below detectable limit
Experimental: Pomegranate extract (PE) derived from the skin of pomegranate fruit (Punica granatum L., Paramount Farms, Lost Hills, Calif.) was standardized to 37% ETs (as punicalagins) and 3.5% free EA as reported (Seeram et al. Sep Purific Tech. 41 (2005), p. 49). PE was administered to animals in doses based on the amount of ETs in a single serving of pomegranate juice (240 ml of single strength juice, 80 mg of ETs). The equivalent dose that would be administered to a 70 kg human was calculated for a mouse of 25 g body weight to be 0.03 mg ETs. Ten times (10×) this dose was used in the animal studies (0.8 mg PE per dose per animal) to enhance our ability to detect phytochemical distribution. For studies administering UA, doses were calculated assuming complete conversion of ETs to UA. […] Both PE and UA were suspended in 50 μL PBS or 10% aqueous glucose solution for intraperitoneal or oral administration, respectively.
Male C57/B6 mice (n=156 mice, retired breeders, 7 months old, 25-30 g) from Charles River laboratories (Wilmington, Mass.) were fed AlN 93G diets and water ad libitum, and fasted 6 h prior to dosing. Mice were dosed orally or intraperitoneally with either PE (0.8 mg/mouse/dose; n=72), UA (0.3 mg/mouse/dose; n=72) or vehicle control (50 μL; n=12 mice). Blood samples were collected at 0.5, 1, 2, 4, 6 and 24 h after dosing and prostate, liver, kidney, lung, colon, intestine and brain tissues were collected and stored at −80° C. Harvested tissue (200 mg) was homogenized in methanol with 0.1% acetic acid (1 mL) and centrifuged at 3000×g for 10 min. The supernatant was dried on a SpeedVac then reconstituted with 200 μL of the HPLC mobile phase for a final injection volume of 20 μL. Xenograft tissue homogenates required acid hydrolysis prior to chromatography as reported (Gu et al. J Agric Food Chem. 53 (2005), p. 6858). HPLC-UV and HPLC-MS/MS analyses were carried out on a Waters Alliance 2690 system (Waters Corp., Milford, Mass.) an LCQ Classic Finnigan system (ThermoFinnigan, San Jose, Calif.), respectively, as previously described (Seeram et al. Clin Chim Acta. 348 (2004), p. 63). Linear calibration curves were constructed using a spiked internal standard method with EA or UA using plasma or liver tissues collected from control mice as described previously (Seeram et al. Clin Chim Acta. 348 (2004), p. 63). Accuracy values ranged from 91-108% for the quality control samples containing the EA or UA standard.

[3] = test system: human pancreatic cancer cell line ASPC-1; experiment: Antiproliferative activity against pancreatic cancer cells (CellTiter-Glo), ASPC-1; type: cell-based; conditions: 100 μg/mL, 48 hrs
Experimental: as §1, with “pancreatic” for “colon”, “lines ASPC-1 and BXPC-3.” for “line HCT-116.”, “well;” for “well in a 96 well format;”, “containing the” for “containing”, “byCellTiter-Glo®” for “by the CellTiter-Glo®”

[4] = test system: human pancreatic cancer cell line BXPC-3; experiment: Antiproliferative activity against pancreatic cancer cells (CellTiter-Glo), BXPC-3; type: cell-based; conditions: 100 μg/mL, 48 hrs
Experimental: as §1, with “pancreatic” for “colon”, “lines ASPC-1 and BXPC-3.” for “line HCT-116.”, “well;” for “well in a 96 well format;”, “containing the” for “containing”, “byCellTiter-Glo®” for “by the CellTiter-Glo®”

22Rv1 cells = experiment: In vitro proliferation (tritiated thymidine uptake), 22RV1; type: cell-based; conditions: mean ± SE, read-out: IC50 on growth of human prostate cancer cells
From the text: (§2) DU145 and LNCaP cells (ATCC, Rockville, Md.), 22Rv1 cells (gift from Pinchas Cohen), and LNCAP-AR cells (gift from Charles Sawyers) were maintained below passage 20 and used in experiments during the linear phase of growth as previously described (Seeram et al. J Nutr Biochem. 16 (2005), p. 360). EA was purchased from Sigma-Aldrich (St. Louis, Mo.). UA (3,8-dihydroxy-6H-benzo[b,d]chromen-6-one), methylated UA and dimethylated UA were synthesized in our laboratory as previously described (Ghosal et al. J Chem Res Synop. 11 (1989), p. 350). Compounds were dissolved in dimethylsulfoxide (DMSO) then added to media to achieve the final desired test concentration with a final DMSO concentration not exceeding 0.1%. Proliferation was determined by tritiated thymidine uptake as previously described. All assays were performed in triplicate.
(§3) For the cell proliferation assays, data are expressed as a percentage of untreated cells (i.e. treatment value-blank/vehicle value-blank), mean±SE for at least three separate experiments. Data were analyzed by either student's t-test or one-way ANOVA followed by Dunnett's Multiple Range test (α=0.05) with Graph Pad Prism 3.0 (Graph Pad Software Inc.) as appropriate.

LNCaP cells = experiment: In vitro proliferation (tritiated thymidine uptake), LNCaP; type: cell-based; conditions: mean ± SE, read-out: IC50 on growth of human prostate cancer cells
From the text: as §2, §3

LNCaP-AR cells = experiment: In vitro proliferation (tritiated thymidine uptake), LNCaP-AR; type: cell-based; conditions: mean ± SE, read-out: IC50 on growth of human prostate cancer cells
From the text: as §2, §3

DU145 cells = experiment: In vitro proliferation (tritiated thymidine uptake), DU145; type: cell-based; conditions: read-out: IC50 on growth of human prostate cancer cells
From the text: as §2, §3

[5] = test system: DU145 prostate cancer cell line; experiment: Antiproliferative cell assay (CellTiter-Glo), DU145; type: cell-based, human; conditions: read-out: IC50 against prostate cancer cell line DU145
Experimental: (§4) Cell Culture Materials. The 22Rv1, DU145, LNCaP and PC3 prostate cancer cell lines were obtained from American Type Culture Collection (ATCC, Rockville, Md.). The LNCaP-AR and Hi-Myc cell lines were a kind donation by Dr. C. Sawyers (David Geffen School of Medicine, UCLA, Los Angeles, Calif.). DU145, 22Rv1, LNCaP, LNCaP-AR, and PC3 cells were grown in RPMI 1640; Hi-Myc cells were grown in Isecove's Modified Dulbecco's Medium. All media contained 10% fetal bovine serum (FBS) in the presence of 100 U/mL penicillin and 0.1 g/L streptomycin. RWPE-1 prostate cells were grown in Defined Keratinocyte Serum Free Medium (DKSFM) containing epidermal growth factor (EGF), insulin and fibroblast growth factor (FGF). Cells were incubated at 37° C. with 95% air and 5% CO2. All cells were maintained below passage 20 and used in experiments during the linear phase of growth.
(§5) Proliferation was measured utilizing the CellTiter-Glo® Luminescent Cell Viability Assay (Technical Bulletin #288, Promega Corp., Madison, Wis.). When added to cells, the assay reagent produces luminescence in the presence of ATP from viable cells. Cells were plated in 96-well plates at a density of 10,000 cells/well and incubated for 24 hours. Test samples were solubilized in DMSO by sonication, filter sterilized and diluted with media to the desired treatment concentration. Cells were treated with 100 μLcontrol media, vehicle control (DMSO<0.2% of total) or test samples and incubated for 48 h drug exposure duration at 6.25, 12.5, 25, 50 and 100 μg/mL concentrations. At the end of 48 h, plates were equilibrated at room temperature for 30 min; 100 μL of the assay reagent was added to each well and cell-lysis was induced on an orbital shaker for 2 min. Plates were incubated at room temperature for 10 min to stabilize the luminescence signal and results were read on an Orion Microplate Luminometer (Bertholds Detection Systems, Pforzheim, Germany). All plates had control wells containing medium without cells to obtain a value for background luminescence. Data are expressed as percentage of untreated cells (i.e. treatment value-blank/vehicle value-blank), mean±SE for three replications.

[6] = test system: LNCaP prostate cancer cell line; experiment: Antiproliferative cell assay (CellTiter-Glo), LNCaP; type: cell-based, human; conditions: 48 h exposure, read-out: IC50 against prostate cancer cell line LNCaP
Experimental: as §4, §5

[7] = test system: Hi-Myc prostate cancer cell line; experiment: Antiproliferative cell assay (CellTiter-Glo), Hi-Myc; type: cell-based; conditions: Hi-Myc (mouse), 48 h exposure, read-out: IC50 against prostate cancer cell line HiMyc
Experimental: as §4, §5

[8] = test system: LNCaP-AR prostate cancer cell line; experiment: Antiproliferative cell assay (CellTiter-Glo), LNCaP-AR; type: cell-based, human; conditions: 48 h exposure, read-out: IC50 against prostate cancer cell line LNCap-AR
Experimental: as §4, §5

[9] = test system: PC3 prostate cancer cell line; experiment: Antiproliferative cell assay (CellTiter-Glo), PC3; type: cell-based, human; conditions: 48 h exposure, read-out: IC50 against prostate cancer cell line PC3
Experimental: as §4, §5

[10] = test system: 22Rv1 prostate cancer cell line; experiment: Antiproliferative cell assay (CellTiter-Glo), 22Rv1; type: cell-based, human; conditions: 48 h exposure, read-out: IC50 against prostate cancer cell line 22 Rv1
Experimental: as §4, §5

[11] = UA 0.3 mg/mouse/dose intraperitoneal
[12] = Homo sapiens, DU-145, 48 h exposure

| Structure (SMILES) | anti-proliferative activity, rank order [1] | anti-proliferative activity, rank order [3] | anti-proliferative activity, rank order [4] | IC50 (22Rv1 cells) [µM] | IC50 (LNCaP cells) [µM] | IC50 (DU145 cells; mean ± SE) [µM] | IC50 [5, 12] [µM] | IC50 ([6]; Homo sapiens) [µM] | IC50 [7] [µM] | IC50 ([8]; Homo sapiens) [µM] | IC50 ([9]; Homo sapiens) [µM] | IC50 ([10]; Homo sapiens, 22Rv1, 48 h) [µM] | IC50 [10] [µM] | further results |
| --- | --- | --- | --- | --- | --- | --- | --- | --- | --- | --- | --- | --- | --- | --- |
| O=c1oc2cc(O)ccc2c2ccc(O)cc12 [UA, 3,8-dihydroxy-6H-benzo[b,d]chromen-6-one] | most active | most active | most active | 47.8 ± 3.2 | 31.3 ± 0.5 | 49.8 ± 3.9 |  |  |  |  |  |  |  | UA and UA-conjugate levels in plasma at 24 h [2, 11]: < 3 ng/mL; UA and UA-conjugate levels in tissues at 24 h [2, 11]: < 5 ng/g; UA and UA-conjugate levels in plasma at 24 h ([2]; UA 0.3 mg/mouse/dose oral): < 3 ng/mL; UA and UA-conjugate levels in tissues at 24 h ([2]; UA 0.3 mg/mouse/dose oral): < 5 ng/g; time of peak concentration in prostate, colon and intestine ([2]; UA intraperitoneally): 2 h; tissue uptake ([2]; UA orally, prostate followed by small intestine and colon): highest concentrations in the prostate gland; IC50 (LNCaP-AR cells): 43.3 ± 2.8 µM |
| O=c1oc2c(O)c(O)cc3c(=O)oc4c(O)c(O)cc1c4c23 [Ellagic acid, reference compound] | urolithin A is the most active, then ellagic acid, urolithin B and methyl urolithin A | urolithin A is the most active, then ellagic acid, urolithin B and methyl urolithin A | urolithin A is the most active, then ellagic acid, urolithin B and methyl urolithin A |  |  |  | 96 | 20.5 | 1.7 | 82.6 | 83.6 | 41.7 |  | IC50 (22Rv1 cells; Homo sapiens): 109 ± 16.6 µM; IC50 (LNCaP cells; Homo sapiens): 62.4 ± 4.2 µM; IC50 (LNCaP-AR cells; Homo sapiens): 78.7 ± 3.2 µM; IC50 (DU145 cells; Homo sapiens, DU-145, mean ± SE): 74.3 ± 5.2 µM |
| COc1ccc2c(c1)oc(=O)c1cc(OC)ccc12 [dmUA] |  |  |  | 85 ± 8.6 | 71.4 ± 13.5 | 70.7 ± 13 |  |  |  |  |  |  |  |  |
| O=C(O)c1cc(O)c(O)c(O)c1-c1c(O)c(O)c2oc(=O)c3c(-c4c(C(=O)O)cc(O)c(O)c4O)c(O)c(O)c4oc(=O)c1c2c43 [Gallagic acid] |  |  |  |  |  |  |  |  | 82.7 |  |  |  | 166 | IC50 ([5]; 48 h exposure): 198 µM; IC50 [6]: 71.4 µM; IC50 [8]: 82.4 µM; IC50 [9]: 83.6 µM |
| O=C(O)c1cc(O)c(O)c(O)c1 [Gallic acid] |  |  |  |  |  |  | 29.4 | 32.3 | 73.5 | 29.2 | 111 | 18.6 | 18.5 |  |
| COc1ccc2c(c1)c(=O)oc1cc(O)ccc12 [8-methyl-Urolithin A, 3-hydroxy-8-methoxyl-6H-dibenzo[b,d]pyran-6-one] | urolithin A is the most active, then ellagic acid, urolithin B and methyl urolithin A | urolithin A is the most active, then ellagic acid, urolithin B and methyl urolithin A | urolithin A is the most active, then ellagic acid, urolithin B and methyl urolithin A |  |  |  | 466 | 206 | 586 | 151 | 526 | 127 |  |  |
